Reference: article PMC7481839, “Switchable foldamer ion channels with antibacterial activity” (Chemical Science, 2020)
≈ marks a conversion by molar mass, not a printed value. Where a SMILES comes first, the peptide text is derived from it.

Assays:
[1] = HPTS assay of ionophoric activity in phospholipid vesicles; type: biochemical; conditions: Table S1, HPTS assay
Method: The membrane activity of 1, 2, Cu[1]Cl2 and Cu[2]Cl2 was assessed in phospholipid vesicle membranes using 8-hydroxypyrene-1,3,6-trisulfonate (HPTS) assays. HPTS assays can show ionophoric activity that occurs via any combination of M^+/H^+ antiport, X^–/OH^– antiport, M^+/OH^– symport and X^–/H^+ symport.
The HPTS assays of 1, 2, Cu[1]Cl2 and Cu[2]Cl2 used 1 : 4 cholesterol : egg yolk phosphatidylcholine (EYPC) vesicles in MOPS buffer (pH 7.4) with 100 mM of an appropriate salt (e.g. KCl, KBr, NaCl), following previously reported procedures.[16] The resulting normalised data were fitted to pseudo first-order rate equations as an approximation (see the ESI ^†).[32] Although the change in fluorescence after the “burst phase” is likely to arise from multiple processes, including inter-vesicle transfer of foldamers,[33] this fitting allows the relative effectiveness of each compound to be compared.
CuCl2 was added at 2 min, followed by addition of 2.2 eq. EDTA at 3 min.
5.1 Preparation of large unilamellar vesicles for HPTS assays
The HPTS assays of 1, 2, Cu[1]Cl2 and Cu[2]Cl2 used 1:4 cholesterol:egg yolk phosphatidylcholine (EYPC) vesicles in MOPS buffer (pH 7.4) with 100 mM of an appropriate salt (e.g. KCl, KBr, NaCl).5 Aliquots of 1, 2, Cu[1]Cl2 or Cu[2]Cl2 dissolved in methanol were mixed with the vesicle suspensions for 60 s before adding a base pulse to change the external pH to 8.4.6 The resulting change in HPTS fluorescence was followed for 6 min, then Triton X-100 was added at 7 min to lyse the vesicles […]. Each assay was repeated three times on new vesicles. The resulting normalized data were fitted to pseudo first-order rate equations as an approximation (see the ESI), similar to the procedure of Regen and co-workers.7 Although the change in fluorescence after the “burst phase” is likely to arise from multiple processes, including inter-vesicle transfer of foldamers,8 this fitting allows the relative effectiveness of each compound to be compared.
Egg yolk phosphatidylcholine (EYPC, 64 μmol) and cholesterol (16 μmol) were dissolved in 2 mL chloroform (spectroscopic grade). The solvent was removed under reduced pressure resulting in a thin film of lipid on the inside wall of the round bottom flask, which was dried further under vacuum for 2 hours. 1.2 mL of a trisodium 8-hydroxypyrene-1,3,6-trisulfonate (HPTS, 100 mM, pH = 7.4) dye in (3-(N-morpholino) propanesulfonic acid) buffer (20 mM MOPS, 100 mM MX (M = K or Na, X = Cl, Br or NO3− adjusted to pH 7.4 using NaOH) were added to the lipid film. Afterwards, the thin film was detached from the sides of the flask by vortex mixing. The resulting lipid suspension was then extruded 19 times through an 800 nm polycarbonate membrane in an Avestin Liposofast extruder to give a suspension of 800 nm large unilamellar vesicles. Unencapsulated HPTS dye was removed by gel permeation chromatography on PD-10 SEC columns (Sephadex G-25). Hereby 1 mL of the 800 nm vesicle suspension was diluted to 2.5 mL with 20 mM MOPS buffer solution and loaded onto the GPC column. The suspension run onto the column, followed by 3.5 mL of 20 mM MOPS buffer, which were collected, giving a stock vesicle solution of 3.5 mL (final concentration of lipids = 15.23 mM). This solution of vesicles was used directly in the HPTS experiments.
5.2 Procedure for HPTS assays
100 μL of the vesicle stock solution was diluted to 2 mL with 20 mM MOPS buffer (final lipid concentration in cuvette 0.762 mM). To this vesicle suspension was then added 20 μL of the principle compound in methanol (1 mM or 0.6 mM for Cu[2]Cl2) and the cuvette was equipped with a stirrer bar. The cuvette was […]

Solubility = type: physicochemical; conditions: under the haemolysis assay conditions (blood diluted with PBS, compound added from DMSO)
From the text: Mixing 1 or 2 with CuCl2 or CuCl provided green or blue complexes respectively. […] The blue complexes from the addition of CuCl gave very broad NMR spectra even after preparing fresh samples, which was ascribed to in situ oxidation of Cu(I); Cu(I)(TPA) complexes are very efficient one electron donors and will rapidly reduce alkyl halides[27] and oxygen.[28] Furthermore these blue products gave green solids when dried (see the ESI, Fig. S2 ^†).
Although alamethicin is a very active channel former, its use in the clinic is hampered by its high haemolytic activity.[52] […] It is known that the haemolytic activity of amphipathic peptides, including alamethicin, decreases substantially on a reduction of peptide hydrophobicity and hydrophobic moment.[56]

Compound: CC(C)(NC(=O)C(C)(C)NC(=O)C(C)(C)NC(=O)C(C)(C)NC(=O)C(C)(C)n1cc(CN(Cc2ccccn2)Cc2ccccn2)nn1)C(=O)NC(C)(C)C(=O)NC(C)(C)C(=O)NC(C)(C)C(=O)OCC[Si](C)(C)C [foldamer 2] (HELM PEPTIDE1{[CC(C)(C(=O)[*:2])n1cc(CN(Cc2ccccn2)Cc2ccccn2)nn1].[Aib].[Aib].[Aib].[Aib].[Aib].[Aib].[Aib].[C[Si](C)(C)CCO[*:1]]}$$$$V2.0)
- Apparent observed rate constant kobs, KBr ([1]; 100 mM KBr, compound 10 µM): 4.0 10−3 s−1
- Apparent observed rate constant kobs, KCl ([1]; 100 mM KCl, compound 10 µM): 3.3 10−3 s−1
- Apparent observed rate constant kobs, KNO3 ([1]; 100 mM KNO3, compound 10 µM): 3.2 10−3 s−1
- Apparent observed rate constant kobs, NaCl ([1]; 100 mM NaCl, compound 10 µM, methanol control 1 × 10−3 s−1): 4.6 10−3 s−1
- solubility limit (Solubility): 20 µM (≈ 21.2 µg/mL)
